A value given as a limit tells only on which side of the number the result lay.

Usually EC50 stands for the concentration that produces a half-maximal response.

For the experiment, the system named is HBV. The experiment in a line: HepAD38 anti-HBV assay: reduction of viral product accumulation (virion DNA qPCR, HBsAg/HBeAg ELISA). To be noted: Hepatitis B virus, 120 h; HepAD38 cells; concentration reducing viral product accumulation by 50% relative to no drug controls; harvest five days after compound addition; read-out: HepAD38 EC50. It counts as cell-based. A digest of the protocol:
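EC50 values reflect 50% reduction, relative to untreated controls, in virion DNA (qPCR) or HBsAg/HBeAg (ELISA) from lysates or supernatants. Washed HepAD38 cells without tetracycline were exposed to compound for 5 days. In the 8-day variant, medium and compound were renewed on days 2 and 5.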
On the technique in general: Real-time PCR tracks product formation cycle by cycle.

For `CCOC(=O)Cn1cc(S(=O)(=O)N[C@H]2CC3=C(c4ccn(C(F)F)n4)[C@H](c4ccc(F)cc4Cl)N=C(c4nccs4)N3C2)cn1` [Example 38], the EC50 is more than 400 nM.

As for `O=S(=O)(N[C@H]1CC2=C(c3ccn(C(F)F)n3)[C@H](c3ccc(F)cc3Cl)N=C(c3nccs3)N2C1)c1cccc(Cl)c1F` [Example 396], the EC50 lay in the range of 100 to 400 nM.

With `O[C@]1(CNCc2ccccc2)CC2=C(c3ccn(C(F)F)n3)[C@H](c3ccc(F)cc3Cl)N=C(c3nccs3)N2C1` [Example 118], the EC50 is more than 400 nM.

For `O=C(NC[C@@]1(F)CC2=C(c3ccn(C(F)F)n3)[C@H](c3ccc(F)cc3Cl)N=C(c3nccs3)N2C1)OCc1ccccc1` [Example 187], the half-maximal effective concentration (EC50) was more than 400 nM.

Take `CS(=O)(=O)C[C@@]1(O)CC2=C(c3ccn(C(F)F)n3)[C@H](c3ccc(F)cc3Cl)N=C(c3nccs3)N2C1` [Example 144]: the EC50 was in the range of 100 to 400 nM.

Consider `O=C(Nc1ccc(F)c(F)c1)c1cccc(S(=O)(=O)N[C@H]2CC3=C(c4ccn(C(F)F)n4)[C@H](c4ccc(F)cc4Cl)N=C(c4nccs4)N3C2)c1` [Example 422], for which the EC50 was in the range of 100 to 400 nM.

As to `O=C(O)Cc1ccc(S(=O)(=O)N[C@H]2CC3=C(c4ccn(C(F)F)n4)[C@H](c4ccc(F)cc4Cl)N=C(c4nccs4)N3C2)cc1` [Example 37], the concentration giving a half-maximal response (EC50) was more than 400 nM.

For the molecule `CCCNS(=O)(=O)N[C@H]1CC2=C(c3ccn(C(F)F)n3)[C@H](c3ccc(F)cc3Cl)N=C(c3nccs3)N2C1` [Example 77], the concentration giving a half-maximal response (EC50) is less than 100 nM.

For `O=C(N[C@H]1CC2=C(c3ccn(C(F)F)n3)[C@H](c3ccc(F)cc3Cl)N=C(c3nccs3)N2C1)C1CC1` [Example 236], the concentration for a half-maximal effect (EC50) was less than 100 nM.

On to `O=S(=O)(N[C@H]1CC2=C(c3ccn(C(F)F)n3)[C@H](c3ccc(F)cc3Cl)N=C(c3nccs3)N2C1)c1cc(Cl)cc(Cl)c1` [Example 395], for which the EC50 is 100 to 400 nM.

As for `O=C(NC1CC1)N[C@H]1CC2=C(c3ccn(C(F)F)n3)[C@H](c3ccc(F)cc3Cl)N=C(c3nccs3)N2C1` [Example 205], the concentration giving a half-maximal response (EC50) was less than 100 nM.

As to `O=S(=O)(C[C@@]1(F)CC2=C(c3ccn(C(F)F)n3)[C@H](c3ccc(F)cc3Cl)N=C(c3nccs3)N2C1)c1ccccc1` [Example 196], the EC50 fell in the range of 100 to 400 nM.

Consider `O[C@@]1(CNCc2ccccc2)CC2=C(c3ccn(C(F)F)n3)[C@H](c3ccc(F)cc3Cl)N=C(c3nccs3)N2C1` [Example 119], for which the 50% effective concentration (EC50) was more than 400 nM.

For `COC(=O)CCS(=O)(=O)N[C@H]1CC2=C(c3ccn(C(F)F)n3)[C@H](c3ccc(F)cc3Cl)N=C(c3nccs3)N2C1` [Example 8], the concentration for a half-maximal effect (EC50) lay within 100 to 400 nM.

Turning to `O=C(O)c1ccc(S(=O)(=O)N[C@H]2CC3=C(c4ccn(C(F)F)n4)[C@H](c4ccc(F)cc4Cl)N=C(c4nccs4)N3C2)cc1` [Example 6], the EC50 was less than 100 nM.

Take `O=S(=O)(N[C@H]1CC2=C(c3ccn(C(F)F)n3)[C@H](c3ccc(F)cc3Cl)N=C(c3nccs3)N2C1)N1CCC2(CC2)C1` [Example 286]: the EC50 is less than 100 nM.

In the case of `O=C(N[C@H]1CC2=C(c3ccn(C(F)F)n3)[C@H](c3ccc(F)cc3Cl)N=C(c3nccs3)N2C1)N1CCC(O)(c2ccccn2)CC1` [Example 243], the EC50 is 100 to 400 nM.

With `O=S(=O)(N[C@H]1CC2=C(c3ccn(C(F)F)n3)[C@H](c3ccc(F)cc3Cl)N=C(c3nccs3)N2C1)c1ccc(-c2ccccn2)s1` [Example 400], the concentration giving a half-maximal response (EC50) is less than 100 nM.

`O=S(=O)(N[C@H]1CC2=C(c3ccn(C(F)F)n3)[C@H](c3ccc(F)cc3Cl)N=C(c3nccs3)N2C1)C1(C[C@H](O)CO)CC1` [Example 425]: the concentration for a half-maximal effect (EC50) was less than 100 nM.

In the case of `O=S(=O)(CCCO)N[C@H]1CC2=C(c3ccn(C(F)F)n3)[C@H](c3ccc(F)cc3Cl)N=C(c3nccs3)N2C1` [compound 313], the EC50 was less than 100 nM.

As to `C#CCNC[C@@]1(O)CC2=C(c3ccn(C(F)F)n3)[C@H](c3ccc(F)cc3Cl)N=C(c3nccs3)N2C1` [Example 114], the EC50 was more than 400 nM.

Regarding `O=S(=O)(N[C@H]1CC2=C(c3ccn(C(F)F)n3)[C@H](c3ccc(F)cc3Cl)N=C(c3nccs3)N2C1)N1CCC(O)(c2cnc(C3CC3)s2)CC1` [Example 262], the concentration for a half-maximal effect (EC50) is less than 100 nM.

With `C#CC1(O)CCN(S(=O)(=O)N[C@H]2CC3=C(c4ccn(C(F)F)n4)[C@H](c4ccc(F)cc4Cl)N=C(c4cccs4)N3C2)CC1` [Example 265], the EC50 was less than 100 nM.

As to `COC(=O)c1cccc(S(=O)(=O)NC[C@@]2(O)CC3=C(c4ccn(C(F)F)n4)[C@H](c4ccc(F)cc4Cl)N=C(c4nccs4)N3C2)c1` [Example 131], the EC50 lay in the range of 100 to 400 nM.

`OC[C@]1(F)CC2=C(c3ccn(C(F)F)n3)[C@H](c3ccc(F)cc3Cl)N=C(c3nccs3)N2C1` [Example 165]: the concentration for a half-maximal effect (EC50) fell in the range of 100 to 400 nM.

Regarding `C=CCNC[C@@]1(O)CC2=C(c3ccn(C(F)F)n3)[C@H](c3ccc(F)cc3Cl)N=C(c3nccs3)N2C1` [Example 116], the EC50 is more than 400 nM.

Regarding `CS(=O)(=O)CCS(=O)(=O)N[C@H]1CC2=C(c3ccn(C(F)F)n3)[C@H](c3ccc(F)cc3Cl)N=C(c3nccs3)N2C1` [Example 328], the EC50 is less than 100 nM.

Turning to `CC1(C)CCCN(S(=O)(=O)N[C@H]2CC3=C(c4ccn(C(F)F)n4)[C@H](c4ccc(F)cc4Cl)N=C(c4nccs4)N3C2)C1` [Example 292], the concentration for a half-maximal effect (EC50) is less than 100 nM.

`CC(C)(C)[Si](C)(C)OCC1(F)CC2=C(c3ccn(C(F)F)n3)[C@H](c3ccc(F)cc3Cl)N=C(c3nccs3)N2C1` (stereo partly shown) [Example 164]: the concentration giving a half-maximal response (EC50) is more than 400 nM.

With `COC(=O)c1ccccc1S(=O)(=O)NC[C@]1(F)CC2=C(c3ccn(C(F)F)n3)[C@H](c3ccc(F)cc3Cl)N=C(c3nccs3)N2C1` [Example 189], the half-maximal effective concentration (EC50) is more than 400 nM.

Turning to `COC(=O)c1cccc(S(=O)(=O)NCC2(F)CC3=C(c4ccn(C(F)F)n4)[C@H](c4ccc(F)cc4Cl)N=C(c4nccs4)N3C2)c1` (stereo partly shown) [Example 190], the 50% effective concentration (EC50) was more than 400 nM.

On to `O=C(N[C@H]1CC2=C(c3ccn(C(F)F)n3)[C@H](c3ccc(F)cc3Cl)N=C(c3nccs3)N2C1)C1CCC(O)CC1` (stereo partly shown) [Example 249], for which the EC50 lay within 100 to 400 nM.

Regarding `OCC[C@]1(F)CC2=C(c3ccn(C(F)F)n3)[C@H](c3ccc(F)cc3Cl)N=C(c3nccs3)N2C1` [Example 167], the concentration for a half-maximal effect (EC50) is more than 400 nM.

Take `O=S(=O)(N[C@H]1CC2=C(c3ccn(C(F)F)n3)[C@H](c3ccc(F)cc3Cl)N=C(c3nccs3)N2C1)C1CCCCC1` [Example 240]: the concentration for a half-maximal effect (EC50) is less than 100 nM.

Take `O=C1NC2(CCN(S(=O)(=O)N[C@H]3CC4=C(c5ccn(C(F)F)n5)[C@H](c5ccc(F)cc5Cl)N=C(c5nccs5)N4C3)CC2)CO1` [Example 162]: the concentration giving a half-maximal response (EC50) was less than 100 nM.

In the case of `C[C@@H]1CN(S(=O)(=O)N[C@H]2CC3=C(c4ccn(C(F)F)n4)[C@H](c4ccc(F)cc4Cl)N=C(c4nccs4)N3C2)C[C@@H]1C` [Example 299], the 50% effective concentration (EC50) was less than 100 nM.

Consider `O=S(=O)(N[C@H]1CC2=C(c3ccn(C(F)F)n3)[C@H](c3ccc(F)cc3Cl)N=C(c3nccs3)N2C1)c1ccc(F)c(F)c1` [Example 393], for which the EC50 fell in the range of 100 to 400 nM.

Regarding `O=S(=O)(NC(CO)c1ccccn1)N[C@H]1CC2=C(c3ccn(C(F)F)n3)[C@H](c3ccc(F)cc3Cl)N=C(c3nccs3)N2C1` (stereo partly shown) [Example 338], the EC50 is less than 100 nM.

Turning to `COC(=O)C1CCCN(CCS(=O)(=O)N[C@H]2CC3=C(c4ccn(C(F)F)n4)[C@H](c4ccc(F)cc4Cl)N=C(c4nccs4)N3C2)C1` (stereo partly shown) [Example 66], the concentration giving a half-maximal response (EC50) is more than 400 nM.

Regarding `C=CC(O)C1(F)CC2=C(c3ccn(C(F)F)n3)[C@H](c3ccc(F)cc3Cl)N=C(c3nccs3)N2C1` (stereo partly shown) [Example 181], the EC50 lay in the range of 100 to 400 nM.
